Literature values in paper PMC3758109 (ChemistryOpen, 2012).

Settings: humans, intravenous bolus injection

inulin
fraction cleared in fast phase: 76% | fraction cleared in slow phase: 24% | half-life of fast phase: 10 min | half-life of slow phase: 86 min
